Experimental data reported in US6388174B1, “Gene encoding α-subunit of rice anthranilate synthase and DNA relating thereto” (Hokko Chemical Industry Co., Ltd., priority 1997, dated 2002).

Assays:
rice callus cells [1] = assay: Selection of transformed rice callus cells and plants, Agrobacterium method (vector pUb-OSASA1D); assay type: cell-based, rice (variety: Nihonbare)
Experimental: Preparation of Agrobacterium bacterium was carried out in the same manner as in Example 3(4) using the recombinant vector pUb-OSASA1D mentioned in the above (1). Preparation of rice callus cells was carried out in the same manner as in Example 3(5). And, gene introduction into the rice callus cells was carried out in the same manner as in Example 3(6).
The obtained calli as transformed with the recombinant vector were washed with sterilized water containing 500 mg/l carbenicillin, to remove the Agrobacterium bacterium. After removal of excess water, the calli (20 calli per petri dish, 500 calli in total) were transplanted to a solid medium as prepared by adding 30 g/l sucrose, 2 mg/l 2,4-PA, 500 mg/l carbenicillin, 2 g/l Gerite and 3×10^−4 M 5MT as a selective drug, to the inorganic salt composition of N6 medium. […]
(§1) After one month of cultivation, the number of the transformed calli thus selected was counted. […]
The transformed calli as selected by the above cultivation in view of their 5MT resistance were transplanted to a solid regeneration medium which was prepared by adding 30 g/l sucrose, 30 g/l sorbitol, 2 g/l casamino acid, 1 mg/l NAA, 2 mg/l BA, 4 g/l Gel lite and3×10^−4M 5MT to the inorganic salt composition of MS medium. […] The number of the transformed plants regenerated from the transformed calluses was counted. […]

rice callus cells [2] = assay: Selection of transformed rice callus cells and plants, direct introduction using whiskers (vector pUBdD); assay type: cell-based, rice (variety: Nihonbare)
Experimental: Ripe seeds of rice (variety: Nihonbare) were hulled, and the resulting seeds with coats were sterilized by immersion in a 70% ethanol solution for 60 seconds and then in a sodium hypochlorite solution containing about 1% effective chlorine for 6 minutes, followed by washing with sterilized water.
The thus sterilized rice seeds were placed on a medium as prepared by adding 30 g/l sucrose, 2 mg/l 2,4-PA as a phytohormone and 8 g/l agar to the inorganic component composition of MS medium. Incubation of seeds was carried out at 28° C. for 45 days with irradiation with light at 2000 lx for 16 hours per day, to form callus. The formed calli were cut from the albumen of the seeds, and those calli having a size of 1 mm or less were obtained in an amount of 3 ml in term of PCV (Packed Cell Volume), with using a stainless steel sieve (mesh size: 1 mm).
Separately, […] of potassium titanate whiskers (LS20, Titan Kogyo K.K.) was put into a 1.5-ml tube, and 0.5 ml of ethanol was added thereto. The mixture was allowed to stand overnight, and ethanol was evaporated completely to obtain sterilized whiskers. To this tube containing the whiskers was added 1 ml of sterilized water, followed by sufficient stirring. […]
as §1

[3] = 30 days on regeneration medium with selective drug (3×10^−4 M 5MT, or 50 mg/l hygromycin in control group)

Cc1ccc2[nH]cc(C[C@H](N)C(=O)O)c2c1 [Test Group, 5-methyltryptophan]
Transformed Callus Cells Selected (rice callus cells [1]; 500 calli tested, one month on selective medium (3×10^−4 M 5MT, or 50 mg/l hygromycin in control group)): 45 | Transformed Plants Selected (rice callus cells [1]; [3]): 43 | Transformed Callus Cells Selected (rice callus cells [2]; 2000 divided cells tested, one month on selective medium (10^−4 M 5MT, or 50 mg/l hygromycin in control group)): 102 | Transformed Plants Selected (rice callus cells [2]; [3]): 85
